Entries after “also recorded” stand apart in the source; their conditions may differ. Square brackets hold non-standard residues; d marks the D form. Ends that are not written are not given here. Hyp = O=C(O)[C@@H]1C[C@@H](O)CN1
Experiments:
M. truncatula roots = test: Exogenous application of synthetic RAR peptides to M. truncatula roots (lateral roots, CCP sites/bumps, root growth); assay type: in vivo, Medicago truncatula; details: for Periodic bump (CCP site) formation: synthetic peptide applied to roots
Description: Seeds of M. truncatula cv Jemalong genotype A17 wild-type and M. truncatula 2HA line carrying either GH3 promoter-GUS reporter fusion gene (GH3:GUS) were grown under standard conditions (Holmes P, Goffard N, Weiller G F, Rolfe B G, & Imin N (2008), “Transcriptional profiling of Medicago truncatula meristematic root cells”, BMC Plant Biol 8:21).
The RAR peptides were synthesized at the Biomolecular Resource Facility, The Australian National University. The 15 amino acid (aa) peptides corresponding to the conserved domains of MtRAR1 (AFQHypTTPGNSHypGVGH and […]ypGVGH, where Hyp indicates hydroxy proline residue) and M. hapla MhRAR2 (AFRHypTAPGHSHypGVGH) were synthesized and validated as previously described in Djordjevic M A. et al. (2011), “Border sequences of Medicago truncatula CLE36 are specifically cleaved by endoproteases common to the extracellular fluids of Medicago and soybean”. J Exp Bot 62(13):4649-4659. The root length of wild-type plants was measured four days after transfer to Fåhraeus-medium containing the synthetic peptide. For the hormone assays, A17 plants were grown on Fåhraeus-medium for 10 days before transferring to Fåhraeus-medium containing 10^−6 M of the respective phytohormones; 1-aminocyclopropant-1-carboxylic acid (ACC), 6-benzylaminopurine (BAP), gibberallic acid (GA), synthetic analog of strigolactone (GR24), methyljasmonate (MeJA) and 1-naphthaleneacetic acid (NAA).

[1] = system: M. truncatula root nodulation by S. meliloti; test: Nodulation with S. meliloti of peptide-treated M. truncatula plants; assay type: in vivo, Medicago truncatula
Description: The 3-weeks old transformed hairy-roots plants were first transferred to a modified Fahraeus media without […] and kanamycin to starve the plants of nitrogen for 4 days. Inoculation with Sinorhizobium meliloti was done as described in Saur I M, Oakes M, Djordjevic M A, & Imin N (2011), “Crosstalk between the nodulation signaling pathway and the autoregulation of modulation in Medicago truncatula”, New Phytol 190(4):[…].
(§1) (b) partial nitrate tolerance of nodule development induced by WSM1022 on MtRAR1 over-expressing plants. Three weeks old composite plants were inoculated and scored two weeks post inoculation. N≥30. student's t-test; *; P<0.05; **; P<0.01; ***; P<0.001. (e) Acetylene reduction assay. MtRAR1 treated (1 μM) and non treated wild-type plants grown in Fåhraeus medium were harvested at 2 week post inoculation by S. meliloti WSM1022. Nitrogenase activity was calculated from peak areas of samples relative to acetylene and ethylene standards to obtain nmoles ethylene/min. N≥3, student's t-test; *: P<0.05; **: P<0.01. Error bars indicate SE. (d) Inoculation of plants with performed CCPs led to root nodule formation at CCP sites at 25 mM KNO3. Arrow head: CCP sites: Arrows: nodules. […] Scale bar: 100 μm. Plants were grown at 20° C.
FIG. 32 M. truncatula plants were grown in 0.8% agar-containing plates supplemented with F media with or without MtRAR1 peptide. Five-day old seedlings were inoculated with S. meliloti strain WSM1022 and further grown for two mom weeks. MtRAR1 Domain 1: AFQ(P)TTPGNS(P)GVGH: MtRAR1 Domain 1 with G−>A transition: AFQ(P)TTPANS(P)GVGH. (P) is hydroxylproline and the altered amino acid is underlined.

[2] = system: white clover (Trifolium repens); test: Lateral root formation of plants grown in magenta jars with peptide; assay type: in vivo; details: 1 μM peptide
Description: (§2) M. truncatula, M. sativa, Subterranean Clover Cultivar Woogenellup and white clover (Trifolium repens) plants were grown in 0.4% agar-containing magenta jars supplemented with F media with or without peptides for two weeks. The media contained 5 mM KNO3. MtRAR1 peptide: FQ(P)TTPGNS(P)GVGH where (P) is hydroxyproline. Students' t-test *: P<0.05; **; P<0.01; ***: P<0.001; N>12. Error bars represent SE.
The plants were grown in 0.4% agar-containing magenta jars supplemented with F medium with on without peptides for two weeks. The media contained 5 mM KNO3. MtRAR1 peptide: […] where (P) is hydroxyproline.
(§3) To further validate and exemplify the RAR technology, we have examined RAR peptide addition of roots of various plant species.

[3] = system: Subterranean Clover Cultivar Woogenellup; test: as above; assay type: in vivo; details: 1 μM peptide
Description: as §2
The plants were grows in 0.4% agar-containing magenta jars supplemented with F media with or without peptides for two weeks. The media contained 5 mM KNO3. MtRAR1 peptide: FQ(P)TTPGNS(P)GVGH where (P) is hydroxyproline.
as §3

M. truncatula = test: as above; assay type: in vivo, Medicago truncatula; details: 1 μM peptide, 5 mM KNO3, two weeks, P<0.05
Description: as §2, §3

Nitrogenase activity = test: Acetylene reduction assay (nitrogenase activity) of plants inoculated with S. meliloti WSM1022; assay type: in vivo, Medicago truncatula; details: 1 μM peptide
Description: as §1

Lucerne (M. sativa) = test: Lateral root formation of plants grown in magenta jars with peptide; assay type: in vivo; details: 1 μM peptide
Description: as §2
The plants were grown in 0.4% agar-containing magenta jars supplemented with F media with or without peptides for two weeks. The medium contained 5 mM KNO3. MtRAR1 peptide: FQ(P)TTPGNS(P)GVGH where (P) is hydroxyproline.
as §3

[4] = system: microtom tomato seedlings; test: Plate assay, lateral root formation on microtom tomato seedlings; assay type: in vivo; details: 1 μM peptide
Description: The plants were grown so 0.8% agar-containing plates supplemented with F media with or without peptides for two weeks. The media contained 5 mM KNO3. MtRAR1 peptide: […] where (P) is hydroxyproline. Students' t-test, **: P<0.01; N>12. Error bars represent SE.
The plants were grows in 0.8% agar-containing plates supplemented with F media with or without peptides for two weeks. The medium contained 5 mM KNO3. MtRAR1 peptide: FQ(P)TTPGNS(P)GVGH where (P) is hydroxyproline.
Primary root length was not affected (FIG. 6).

[5] = system: Arabidopsis thaliana WT Col plants; test: RAR bioactivity in Arabidopsis at different concentrations; assay type: in vivo
Description: To investigate the effect of different modifications on peptide bioactivity, several peptides were assayed for activity at different concentrations (Table 4), WT Col plants were grown vertically on ½ MS plates with 1% phytagel and containing varying concentration of RAR peptide ranging from 10^−6 M to 10^−12 M or no peptide. Plates were imaged at 12 days.

[6] = system: Arabidopsis thaliana WT Col plants; test: Rescue: transfer of Arabidopsis plants between RAR and no RAR plates; assay type: in vivo
Description: To investigate whether the effect of RAR peptide addition could be released, WT Col plants were grown vertically for 6 days on […] plates with 1% phytagel. Plants were transferred from plates containing no RAR or 1 μM RAR6 hyP peptide (pre-treatment) to plates containing no RAR or 1 μM RAR6 hyP peptide as specified where they were left to grow for a further 6 days before being analysed.

[7] = system: Arabidopsis thaliana WT Col plants; test: Time course of RAR action in Arabidopsis over 12 days; assay type: in vivo; details: 1 μM
Description: To see how RAR was exerting its effect on PR growth and lateral root emergence and growth, a time course was performed over 12 days, WT Col plants were grown vertically on ½ MS with 1% phytagel and 1 μM RAR6 hyP or no peptide, with 16 hr days at 22° C. Plates were scanned every day for 12 days.

soybean seedlings = test: Liquid culture, root formation of soybean seedlings; assay type: in vivo; details: 1 μM peptide
Description: The plants were grown in liquid supplemented with F medium with or without peptides for two weeks. The medium contained 5 mM KNO3. GmRAR peptide: NFR(P)TAPGHS(P)GVGH where (P) is hydroxyproline. Students' t-test, **; P<0.01; N>6. Error bars represent SE.
The plants were grown in liquid supplemented with F medium with or without peptides for two weeks. The media contained 5 mM KNO3. GmRAR peptide: […] where (P) is hydroxyproline.
Primary root length was also affected (FIG. 21).

rice seedlings = test: Liquid culture (half strength MS), root formation of rice seedlings; assay type: in vivo; details: 1 μM peptide
Description: The plants were grown in liquid media containing half strength MS media with or without peptides for two weeks. Monocot RAR peptide: DTRATDFGHS(P)GAGH where (P) is hydroxyproline. Students' t-test, *: P<0.05; N>6. Error bars represent SE.
The plants were grown in liquid media containing half strength MS media with or without peptides for two weeks. Monocot RAR peptide: DTRATDPGHS(P)GAGH where (P) is hydroxyproline:
Primary root length was also affected (FIG. 23).

[8] = range tested 10^−6 M to 10^−12 M, 12 days

AFR[Hyp]TAPGHS[Hyp]GVGH [MhRAR2]
Periodic bump (CCP site) formation (M. truncatula roots): Maximum CCP site generation; also recorded: Periodic bumps

AFQ[Hyp]TTPGNS[Hyp]GVGH [MtRAR1 peptide]
Main root growth (M. truncatula roots; 10^−6 M peptide): significantly inhibited
Lateral root formation (M. truncatula roots; A17 plants, F medium containing 25 mM KNO3, 10^−6 M peptide): significantly reduced
Concentration for dose-dependent inhibition of lateral root emergence (M. truncatula roots; in vivo): greater than 10^−7 M
Periodic bump (CCP site) formation (M. truncatula roots): Maximum CCP site generation; also recorded: Periodic bumps
Numbers of pink functional nodules ([1]; 1 μM peptide, 5 mM and 25 mM KNO3, compared to controls): significantly higher numbers
Nodule development (nodule sections) ([1]; 0.5 mM or 25 mM KNO3, three weeks, versus untreated plants): accelerated nodule development
Nodule size ([1]; all across the nitrate regimen, versus no peptide or G->A peptide): much larger
CCP (bump) site formation [2]: formed CCP
Lateral root emergence ([2]; 5 mM KNO3, two weeks, P<0.05): significantly inhibited
CCP (bump) site formation [3]: formed CCP
Lateral root emergence ([3]; 5 mM KNO3, two weeks, P<0.05): significantly inhibited
Lateral root emergence (M. truncatula): significantly inhibited
Increase in nitrogenase activity (Nitrogenase activity; 0 mM KNO3, 2 week post inoculation): 35%
Increase in nitrogenase activity (Nitrogenase activity; 5 mM KNO3, 2 week post inoculation): 200%
CCP (bump) site formation (Lucerne (M. sativa)): formed CCP
Lateral root emergence (Lucerne (M. sativa); 5 mM KNO3, two weeks, P<0.05): significantly inhibited
Primary root length [4]: not affected
Number of lateral roots ([4]; 5 mM KNO3, two weeks, P<0.05): reduction

D F V P T S P G N S P G V G H (DFVPTSPGNSPGVGH) [RAR5 no HyP]
Concentration at which the peptide is active [5, 8]: 10^−9 M

D F R hyP T T P G H S hyP G I G H [RAR6 hyP]
Primary root length of plants pre-treated with RAR and transferred to no RAR versus plants exposed to RAR continuously ([6]; 1 μM, 6 + 6 days, p<0.05): significantly higher
Number of lateral roots after transfer to no RAR, by pre-treatment ([6]; 6 days pre-treatment with 1 μM or no RAR, then 6 days no RAR): the same
PR length, treated versus untreated ([7]; 2 days post imbibing): no significant difference
PR length, treated versus untreated ([7]; from day 3 onwards): significantly shorter
Number of lateral roots, treated versus untreated ([7]; scanned every day for 12 days): not significantly different until day 8

D F V hyP T (p-S) P G N S hyP G V G H [RAR5 phos]
Effect of phosphorylation on activity ([5]; Arabidopsis RAR5): enhances activity

NFR(P)TAPGHS(P)GVGH [GmRAR peptide]
Primary root length (soybean seedlings): affected
Number of roots (soybean seedlings; liquid F medium, 5 mM KNO3, two weeks, P<0.05): reduction

DTRATDPGHS(P)GAGH [Monocot RAR peptide]
Primary root length (rice seedlings): affected
Number of roots (rice seedlings; liquid half strength MS, two weeks, P<0.05): reduction

AFQ(P)TTPANS(P)GVGH [MtRAR1 Domain 1 with G−>A transition]
Inhibition of lateral root emergence (structure activity relationship of peptide variants) (M. truncatula roots; compared with MtRAR1 peptide): greatly attenuated
Nodule numbers ([1]; 1 μM peptide, 5 mM and 25 mM KNO3, trend = significant increase as with MtRAR1 over-expression): non-functional

D F V hyP T S P G N S hyP G V G H [RAR5 hyP]
Concentration at which the peptide is active [5, 8]: 10^−8 M

D F R hyP T (p-T) P G H S hyP G I G H [RAR6 phos]
Activity relative to the non-phosphorylated RAR6 peptide ([5]; in vivo): 1000 ×
Concentration range at which the peptide is active (in words) [5, 8]: picomolar

— US20180155737A1, “METHOD FOR MODULATING PLANT ROOT ARCHITECTURE” (priority 2012, published 2018)
